Measurements from patent US20110185440A1, “CISD2-Knockout Mice and Uses Thereof” (NATIONAL YANG-MING UNIVERSITY, priority 2006, published 2011).

Assays:
[1] = system: Cisd2 knockout mice; assay: Body weight of Cisd2 knockout mice after oral resveratrol treatment; assay type: in vivo, mouse; settings: 30 mg/kg/day oral from 4- to 12-week old; effect after 8-week old; P<0.05 vs untreated control
Experimental: (17A) Oral administration of resveratrol (30 mg/kg/day) to Cisd2 knockout mice from 4- to 12-week old. (17B) To analyze the body weight of the Cisd2 knockout mice after resveratrol treatment and compare to 4-week old wild-type mice. Values represent mean±s.d from at least three male samples. Asterisks indicate statistically significant differences compare with untreated control. (*, P<0.05) Resveratrol (30 mg/kg/day) was administered by oral to Cisd2 knockout mice from 4- to 12-week old. The body weight of the Cisd2 knockout mice was analyzed after resveratrol treatment and comparing to 4-week old wild-type mice (FIG. 17).

[2] = system: Cisd2 knockout mice; assay: Muscle and neuron degeneration in Cisd2 knockout mice after resveratrol treatment (H&E staining, TEM); assay type: in vivo, mouse; settings: 30 mg/kg/day oral from 4- to 12-week old
From the text: (18A-F) H&E staining of transverse sections of skeletal muscle dissected from the 12-week old, male Cisd2 knockout mice with (18A) untreated control, (18B) resveratrol or (18C) H2O treatment, and (18D-F) relative wild-type control. Black arrowheads indicate degenerated transverse fibers. Blue arrows indicate angular fibres which are the evidences of muscle atrophy caused by neuron degeneration. (18G) The standard quantification score of muscle atrophy. (18H) The quantification of degenerative muscle fiberin under resveratrol treated or not. About 1000 muscle fibre in random fields of H&E staining slides were examined for each mouse. Values represent mean±s.d from at least three male samples. […] Myelin sheath degeneration (asterisks) was detected only in the Cisd2 knockout mice. […] (18U) The standard quantification score of axon and myelin sheath degeneration. (18V) The quantification of degenerative sciatic nerve in wild-type, Cisd2 knockout and Cisd2 knockout mice with resveratrol treatment, respectively. […] The standard quantification score of muscle atrophy was prepared. The quantification of degenerative muscle fiberin was measured under resveratrol treated or not. […] Myelin sheath degeneration was detected only in the Cisd2 knockout mice. The standard quantification score of axon and myelin sheath degeneration was created. […]

Oc1ccc(C=Cc2cc(O)cc(O)c2)cc1 [Resveratrol]
body weight of Cisd2 knockout mice [1]: significant reverse
muscle degeneration of the Cisd2 knockout mice ([2]; 12-week old male mice, skeletal muscle H&E, skeletal and cardiac muscle ultrastructure): partial rescue
neuron degeneration of the Cisd2 knockout mice ([2]; 12-week old mice, sciatic nerve TEM, axon and myelin sheath degeneration): partial rescue
